# In patent publication US20070043327A1, “Drug delivery device comprising a mesh sleeve” (priority 2003, published 2007):
# Columns and labels:
# [1] = release of mefenamic acid from intravaginal devices into water; format: physicochemical; settings: 100 ml water, stirred gently, six devices
# Excerpt: The final intra-vaginal devices, namely coupons fixed directly to tampons or coupons fixed to tampons via the sleeve were then compared for their ability to release an active pharmaceutical, in this case mefenamic acid, when placed in an aqueous environment. This enabled functional ‘equivalence’ of the devices to be confirmed. Intravaginal devices constructed by the direct application of coupons to tampons were compared to intravaginal devices constructed using the mesh sleeve. Devices were placed in beakers containing 100 ml water and stirred gently for varying periods of time. The fluid phase was removed brought to a […] with sodium hydroxide and the concentration of mefenamic determined by spectrophotometry.
# [2] = clinical study: circulating plasma concentrations of mefenamic acid after intravaginal devices; format: in vivo; settings: human volunteers, intravaginal tampon with directly attached coupons
# Procedure: The purpose of the device described here is to administer mefenamic acid via the intravaginal route. In one clinical study, intravaginal devices, using the direct process of attachment of coupons to tampons were prepared to cGMP (Good Manufacturing Procedure); devices were prepared containing 20, 40 or 80 mg per tampon.
# These were administered to human volunteers in a study conforming to Good Clinical Procedure and circulating plasma concentrations of mefenamic acid were determined after drawing blood samples.
# [3] = 20 mg mefenamic acid per tampon
# [4] = 40 mg mefenamic acid per tampon
# [5] = 80 mg mefenamic acid per tampon
smiles,measurement,setting,value
"Cc1cccc(Nc2ccccc2C(=O)O)c1C [mefenamic acid, 2-[2,3-Dimethylphenylamino] benzoid acid]",mefenamic acid recovered in the aqueous phase (mean),"[1]; devices with coupons attached via the mesh sleeve, 80 mg per sleeve",73.7 mg
same,mefenamic acid recovered in the aqueous phase (mean),"[1]; devices with coupons directly attached to tampons, 80 mg per tampon",72.8 mg
same,Accumulated dose (0-7),[2]; [3],44.7
same,Max. plasma conc.,[2]; [3],4.23 ng/mL
same,Accumulated dose (0-7),[2]; [4],197
same,Max. plasma conc.,[2]; [4],14.9 ng/mL
same,Accumulated dose (0-7),[2]; [5],257
same,Max. plasma conc.,[2]; [5],19.5 ng/mL
